From ChEMBL document CHEMBL4017512 (J Med Chem, 2017)

Experiments:
HCT-116 = assay: Antiproliferative activity against human HCT116 cells after 72 hrs by phosphatase assay; type: functional, cell-based; conditions: HCT-116, 72 h
L1210 = assay: Antiproliferative activity against mouse L1210 cells after 72 hrs by phosphatase assay; type: functional, cell-based; conditions: L1210, 72 h
[1] = Cytotoxicity against human HCT116/VM46 cells assessed as reduction in cell viability after 72 hrs by phosphatase assay; type: cell-based; conditions: HCT-116/VM46, 72 h

Compound	IC50 (HCT-116)	IC50 (L1210)	IC50 [1]
CC[C@]1(NC(=O)c2ccc3ccccc3n2)C[C@H]2CN(CCc3c([nH]c4ccccc34)[C@@](C(=O)OC)(c3cc4c(cc3OC)N(C)[C@H]3[C@@](O)(C(=O)OC)[C@H](OC(C)=O)[C@]5(CC)C=CCN6CC[C@]43[C@@H]65)C2)C1	40 nM	40 nM	270 nM
CC[C@]1(NC(=O)c2ccoc2)C[C@H]2CN(CCc3c([nH]c4ccccc34)[C@@](C(=O)OC)(c3cc4c(cc3OC)N(C)[C@H]3[C@@](O)(C(=O)OC)[C@H](OC(C)=O)[C@]5(CC)C=CCN6CC[C@]43[C@@H]65)C2)C1	0.6 nM	0.7 nM	6.3 nM
CC[C@]1(NC(=O)c2nc3ccccc3o2)C[C@H]2CN(CCc3c([nH]c4ccccc34)[C@@](C(=O)OC)(c3cc4c(cc3OC)N(C)[C@H]3[C@@](O)(C(=O)OC)[C@H](OC(C)=O)[C@]5(CC)C=CCN6CC[C@]43[C@@H]65)C2)C1	60 nM	60 nM	190 nM
CC[C@]1(NC(=O)c2ccc(N)c(C)c2)C[C@H]2CN(CCc3c([nH]c4ccccc34)[C@@](C(=O)OC)(c3cc4c(cc3OC)N(C)[C@H]3[C@@](O)(C(=O)OC)[C@H](OC(C)=O)[C@]5(CC)C=CCN6CC[C@]43[C@@H]65)C2)C1	0.6 nM	0.6 nM	7.8 nM
CC[C@]1(NS(=O)(=O)c2ccccc2)C[C@H]2CN(CCc3c([nH]c4ccccc34)[C@@](C(=O)OC)(c3cc4c(cc3OC)N(C)[C@H]3[C@@](O)(C(=O)OC)[C@H](OC(C)=O)[C@]5(CC)C=CCN6CC[C@]43[C@@H]65)C2)C1	50 nM	45 nM	680 nM
CC[C@]1(NC(=O)c2ccc3cc(N)ccc3c2)C[C@H]2CN(CCc3c([nH]c4ccccc34)[C@@](C(=O)OC)(c3cc4c(cc3OC)N(C)[C@H]3[C@@](O)(C(=O)OC)[C@H](OC(C)=O)[C@]5(CC)C=CCN6CC[C@]43[C@@H]65)C2)C1	0.8 nM	0.7 nM	7.4 nM
CC[C@]1(NC(=O)C2CCN(C(=O)OC(C)(C)C)CC2)C[C@H]2CN(CCc3c([nH]c4ccccc34)[C@@](C(=O)OC)(c3cc4c(cc3OC)N(C)[C@H]3[C@@](O)(C(=O)OC)[C@H](OC(C)=O)[C@]5(CC)C=CCN6CC[C@]43[C@@H]65)C2)C1	45 nM	50 nM	500 nM
CC[C@]1(NC(=O)c2ccc(SC(C)C)cc2)C[C@H]2CN(CCc3c([nH]c4ccccc34)[C@@](C(=O)OC)(c3cc4c(cc3OC)N(C)[C@H]3[C@@](O)(C(=O)OC)[C@H](OC(C)=O)[C@]5(CC)C=CCN6CC[C@]43[C@@H]65)C2)C1	4.6 nM	4.3 nM	55 nM
CC[C@]1(NC(=O)c2ccc(OC)c(C)c2)C[C@H]2CN(CCc3c([nH]c4ccccc34)[C@@](C(=O)OC)(c3cc4c(cc3OC)N(C)[C@H]3[C@@](O)(C(=O)OC)[C@H](OC(C)=O)[C@]5(CC)C=CCN6CC[C@]43[C@@H]65)C2)C1	0.7 nM	0.6 nM	5.2 nM
CC[C@]1(NC(=O)c2cccc3ccccc23)C[C@H]2CN(CCc3c([nH]c4ccccc34)[C@@](C(=O)OC)(c3cc4c(cc3OC)N(C)[C@H]3[C@@](O)(C(=O)OC)[C@H](OC(C)=O)[C@]5(CC)C=CCN6CC[C@]43[C@@H]65)C2)C1	65 nM	60 nM	220 nM
CC[C@]1(NC(=O)c2ccncc2)C[C@H]2CN(CCc3c([nH]c4ccccc34)[C@@](C(=O)OC)(c3cc4c(cc3OC)N(C)[C@H]3[C@@](O)(C(=O)OC)[C@H](OC(C)=O)[C@]5(CC)C=CCN6CC[C@]43[C@@H]65)C2)C1	0.4 nM	0.4 nM	55 nM
CC[C@]1(NC(=O)c2cc(C)c(OC)c(C)c2)C[C@H]2CN(CCc3c([nH]c4ccccc34)[C@@](C(=O)OC)(c3cc4c(cc3OC)N(C)[C@H]3[C@@](O)(C(=O)OC)[C@H](OC(C)=O)[C@]5(CC)C=CCN6CC[C@]43[C@@H]65)C2)C1	0.65 nM	0.5 nM	3.5 nM
C=CC(=O)N[C@@]1(CC)C[C@H]2CN(CCc3c([nH]c4ccccc34)[C@@](C(=O)OC)(c3cc4c(cc3OC)N(C)[C@H]3[C@@](O)(C(=O)OC)[C@H](OC(C)=O)[C@]5(CC)C=CCN6CC[C@]43[C@@H]65)C2)C1	6 nM	7 nM	520 nM
CC[C@]1(NC(=O)c2ccccc2C)C[C@H]2CN(CCc3c([nH]c4ccccc34)[C@@](C(=O)OC)(c3cc4c(cc3OC)N(C)[C@H]3[C@@](O)(C(=O)OC)[C@H](OC(C)=O)[C@]5(CC)C=CCN6CC[C@]43[C@@H]65)C2)C1	50 nM	55 nM	540 nM

More lines, main results first:

IC50 (HCT-116)	IC50 (L1210)	Compound	IC50 [1]
0.5 nM	0.4 nM	CC[C@]1(NC(=O)c2ccc(SC)cc2)C[C@H]2CN(CCc3c([nH]c4ccccc34)[C@@](C(=O)OC)(c3cc4c(cc3OC)N(C)[C@H]3[C@@](O)(C(=O)OC)[C@H](OC(C)=O)[C@]5(CC)C=CCN6CC[C@]43[C@@H]65)C2)C1	6.8 nM
0.6 nM	0.6 nM	CC[C@]1(NC(=O)c2ccc3cnccc3c2)C[C@H]2CN(CCc3c([nH]c4ccccc34)[C@@](C(=O)OC)(c3cc4c(cc3OC)N(C)[C@H]3[C@@](O)(C(=O)OC)[C@H](OC(C)=O)[C@]5(CC)C=CCN6CC[C@]43[C@@H]65)C2)C1	7.3 nM
3.9 nM	4.1 nM	CC[C@]1(NC(=O)c2ccc(N(C)C(=O)OC(C)(C)C)cc2)C[C@H]2CN(CCc3c([nH]c4ccccc34)[C@@](C(=O)OC)(c3cc4c(cc3OC)N(C)[C@H]3[C@@](O)(C(=O)OC)[C@H](OC(C)=O)[C@]5(CC)C=CCN6CC[C@]43[C@@H]65)C2)C1	35 nM
3.5 nM	3.9 nM	CC[C@]1(NC(=O)c2cnco2)C[C@H]2CN(CCc3c([nH]c4ccccc34)[C@@](C(=O)OC)(c3cc4c(cc3OC)N(C)[C@H]3[C@@](O)(C(=O)OC)[C@H](OC(C)=O)[C@]5(CC)C=CCN6CC[C@]43[C@@H]65)C2)C1	65 nM
30 nM	30 nM	CC[C@]1(NS(=O)(=O)c2cccc3c(N(C)C)cccc23)C[C@H]2CN(CCc3c([nH]c4ccccc34)[C@@](C(=O)OC)(c3cc4c(cc3OC)N(C)[C@H]3[C@@](O)(C(=O)OC)[C@H](OC(C)=O)[C@]5(CC)C=CCN6CC[C@]43[C@@H]65)C2)C1	60 nM
6.7 nM	5.1 nM	CC[C@]1(NC(=O)c2ccc3c(c2)CCN3)C[C@H]2CN(CCc3c([nH]c4ccccc34)[C@@](C(=O)OC)(c3cc4c(cc3OC)N(C)[C@H]3[C@@](O)(C(=O)OC)[C@H](OC(C)=O)[C@]5(CC)C=CCN6CC[C@]43[C@@H]65)C2)C1	60 nM
450 nM	460 nM	CC[C@]1(NC(=O)C2CCSCC2)C[C@H]2CN(CCc3c([nH]c4ccccc34)[C@@](C(=O)OC)(c3cc4c(cc3OC)N(C)[C@H]3[C@@](O)(C(=O)OC)[C@H](OC(C)=O)[C@]5(CC)C=CCN6CC[C@]43[C@@H]65)C2)C1	5200 nM
3.5 nM	25 nM	CC[C@]1(NC(=O)c2ccc(CN)cc2)C[C@H]2CN(CCc3c([nH]c4ccccc34)[C@@](C(=O)OC)(c3cc4c(cc3OC)N(C)[C@H]3[C@@](O)(C(=O)OC)[C@H](OC(C)=O)[C@]5(CC)C=CCN6CC[C@]43[C@@H]65)C2)C1	470 nM
7 nM	4.5 nM	CC[C@]1(NC(=O)c2ccon2)C[C@H]2CN(CCc3c([nH]c4ccccc34)[C@@](C(=O)OC)(c3cc4c(cc3OC)N(C)[C@H]3[C@@](O)(C(=O)OC)[C@H](OC(C)=O)[C@]5(CC)C=CCN6CC[C@]43[C@@H]65)C2)C1	90 nM
0.6 nM	0.5 nM	CC[C@]1(NC(=O)/C=C/c2ccsc2)C[C@H]2CN(CCc3c([nH]c4ccccc34)[C@@](C(=O)OC)(c3cc4c(cc3OC)N(C)[C@H]3[C@@](O)(C(=O)OC)[C@H](OC(C)=O)[C@]5(CC)C=CCN6CC[C@]43[C@@H]65)C2)C1	20 nM
0.7 nM	0.7 nM	CC[C@]1(NC(=O)c2ccco2)C[C@H]2CN(CCc3c([nH]c4ccccc34)[C@@](C(=O)OC)(c3cc4c(cc3OC)N(C)[C@H]3[C@@](O)(C(=O)OC)[C@H](OC(C)=O)[C@]5(CC)C=CCN6CC[C@]43[C@@H]65)C2)C1	12 nM
2.3 nM	5.4 nM	CC[C@]1(NC(=O)c2cccc(SC)c2)C[C@H]2CN(CCc3c([nH]c4ccccc34)[C@@](C(=O)OC)(c3cc4c(cc3OC)N(C)[C@H]3[C@@](O)(C(=O)OC)[C@H](OC(C)=O)[C@]5(CC)C=CCN6CC[C@]43[C@@H]65)C2)C1	20 nM
0.6 nM	0.7 nM	CC[C@]1(NC(=O)c2ccc3c(c2)ncn3C)C[C@H]2CN(CCc3c([nH]c4ccccc34)[C@@](C(=O)OC)(c3cc4c(cc3OC)N(C)[C@H]3[C@@](O)(C(=O)OC)[C@H](OC(C)=O)[C@]5(CC)C=CCN6CC[C@]43[C@@H]65)C2)C1	8 nM
0.6 nM	0.6 nM	CC[C@]1(NC(=O)c2ccc3nccnc3c2)C[C@H]2CN(CCc3c([nH]c4ccccc34)[C@@](C(=O)OC)(c3cc4c(cc3OC)N(C)[C@H]3[C@@](O)(C(=O)OC)[C@H](OC(C)=O)[C@]5(CC)C=CCN6CC[C@]43[C@@H]65)C2)C1	7.5 nM
25 nM	30 nM	CC[C@]1(NC(=O)C2CCCC2)C[C@H]2CN(CCc3c([nH]c4ccccc34)[C@@](C(=O)OC)(c3cc4c(cc3OC)N(C)[C@H]3[C@@](O)(C(=O)OC)[C@H](OC(C)=O)[C@]5(CC)C=CCN6CC[C@]43[C@@H]65)C2)C1	380 nM
0.7 nM	0.5 nM	CC[C@]1(NC(=O)c2ccsc2)C[C@H]2CN(CCc3c([nH]c4ccccc34)[C@@](C(=O)OC)(c3cc4c(cc3OC)N(C)[C@H]3[C@@](O)(C(=O)OC)[C@H](OC(C)=O)[C@]5(CC)C=CCN6CC[C@]43[C@@H]65)C2)C1	7.7 nM
